Several values for one entry are separate records, joined by “and”; a condition that tells them apart may be missing. Identical values can stand only once. Like-named read-outs stand apart in the source and are kept apart here.
Tests used:
[1] = lumefantrine: ACD labs value; ref Charman et al., 2020 1; cited from earlier work
[2] = cited from earlier work
[3] = cited from earlier work; for fu: PBPK input
[4] = 2020 1, cited from earlier work
[5] = measured (0.4 mg/mL protein where stated); ref Charman et al., 2020 1; cited from earlier work
[6] = Fraction unbound in human liver microsomes (fumic); details: extrapolated from value measured at 0.4 mg/mL to 0.1 mg/mL, method of Austin et al., 2002
[7] = PBPK simulation of drug-drug interactions (Simcyp V19); design: species or system human; details: for AUC ratios Sim/Obs: ratio of simulated to clinically observed AUC ratio
Excerpt: Here, we provide three example applications where the available PBPK models were used to address questions relating to DDI assessment. […] Additional simulation methods are provided in Appendix S1.
(§1) All simulations, including the ones performed for the applications, were run using Version 19 of the Simcyp population-based PBPK simulator (Simcyp (Certara), Sheffield, UK) and unless stated otherwise, input parameters for all drugs are as specified (Supplementary Information Table S1). All simulations were run using ten virtual trials that were matched as closely as possible to the clinical study volunteers in terms of the number of subjects, their age, the proportion of males/females and according to the same study design.

[8] = in vitro; details: human, plasma
[9] = cited from earlier work; remark: listed apart in the source
[10] = cited from earlier work; for CL renal: PBPK input, ref amodiaquine, DEAQ Winstanley et al., atovaquone Rolan et al., 1997 14, azithromycin Lalak et al., 1993 23, carboxyprimaquine Mihaly et al., 1985 26, chloroquine Walker et al., 1987 29, DHA EMA Website, 44, doxycycline Raghuram et al., 1982 48, Nguyen et al., 1989 49, mefloquine Schwartz et al., 1982 57, primaquine White, 1985 62, pyrimeth; for CL renal / CL PO: 1987 9, proguanil Jeppesen et al., 1997 34; for CL PO: clinically observed oral (in vivo) clearance, pyronaridine: blood, ref amodiaquine Winstanley et al., DEAQ Akande et al., 2015 8, Scarsi et al., 2014 35, Tarning et al., 2012 36, Orrell et al., 2008 37, DHA Na-Bangchang et al., 2004 42, lumefantrine Lefevre et al., 2002 52, Hoglund et al., 2015 53, mefloquine Charles et al., 2007 56, pyronaridine Jittama
[11] = PBPK simulation of plasma Cmax and AUC (Simcyp V19); design: species or system human; details: single oral dose named in the block
Excerpt: as §1
The available clinical PK data for performance verification of simulations was largely in healthy volunteers of either Caucasian or South-East Asian (Thai or Vietnamese) descent. For Caucasian subjects the default Sim-Healthy Volunteers virtual population was used without modification. […] The case study simulations presented in this paper used the Sim-Healthy Volunteers virtual population.

[12] = In vitro flags for victim and perpetrator properties conferring DDI liability; assay type: in vitro ADME, human; details: in vitro flag, mainly based on in vitro determinations
[13] = Hepatic / HLM intrinsic clearance, enzyme not defined; details: for fm additional / undefined metabolism: human
[14] = molecular target: CYP3A4 (Homo sapiens, UniProt P08684)
Excerpt: (§2) In nearly all cases the fraction of systemic elimination metabolised by a given enzyme (fm) determined in vitro was unavailable in the literature.

[15] = Blood to plasma ratio (B:P); details: PBPK input; 0.55 = no uptake into RBC for a haematocrit of 45%
[16] = molecular target: CYP2C19 (Homo sapiens, UniProt P33261); assay: Metabolism by CYP2C19 (CLint, fm); assay type: in vitro ADME
Excerpt: as §2

[17] = system: Caco-2 cells; details: calibrated against propranolol; plasma as medium for atovaquone and piperaquine; ref Charman et al., 2020 1; cited from earlier work
[18] = 200 mg SD, 0-inf, ref Wattanagoon et al., 1987 17
[19] = DDI of the respective line of Table S3
[20] = ratio of simulated to clinically observed Cmax ratio, DDI of the respective line of Table S3
[21] = amodiaquine 600 mg SD (Day 6) + trimethoprim 160 mg QD (7 Days), ref Akande et al., 2015 1
[22] = from observed differences in metabolite formation, Jeppesen et al., 1997

CYP3A4, sequence (P08684 whole entry): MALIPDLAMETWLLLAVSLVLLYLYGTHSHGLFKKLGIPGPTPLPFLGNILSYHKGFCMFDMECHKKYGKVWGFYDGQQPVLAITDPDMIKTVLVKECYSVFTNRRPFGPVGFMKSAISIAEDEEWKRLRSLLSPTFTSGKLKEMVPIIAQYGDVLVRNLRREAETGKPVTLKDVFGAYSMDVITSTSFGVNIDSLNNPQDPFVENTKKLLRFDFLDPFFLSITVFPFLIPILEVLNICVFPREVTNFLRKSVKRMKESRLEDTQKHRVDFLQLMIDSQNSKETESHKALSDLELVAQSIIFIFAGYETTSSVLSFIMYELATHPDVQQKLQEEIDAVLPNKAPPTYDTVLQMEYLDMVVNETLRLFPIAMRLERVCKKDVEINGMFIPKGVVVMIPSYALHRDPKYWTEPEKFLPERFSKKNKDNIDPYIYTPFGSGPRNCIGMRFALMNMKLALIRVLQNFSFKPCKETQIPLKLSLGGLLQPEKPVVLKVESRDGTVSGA
CYP2C19, sequence (P33261 whole entry): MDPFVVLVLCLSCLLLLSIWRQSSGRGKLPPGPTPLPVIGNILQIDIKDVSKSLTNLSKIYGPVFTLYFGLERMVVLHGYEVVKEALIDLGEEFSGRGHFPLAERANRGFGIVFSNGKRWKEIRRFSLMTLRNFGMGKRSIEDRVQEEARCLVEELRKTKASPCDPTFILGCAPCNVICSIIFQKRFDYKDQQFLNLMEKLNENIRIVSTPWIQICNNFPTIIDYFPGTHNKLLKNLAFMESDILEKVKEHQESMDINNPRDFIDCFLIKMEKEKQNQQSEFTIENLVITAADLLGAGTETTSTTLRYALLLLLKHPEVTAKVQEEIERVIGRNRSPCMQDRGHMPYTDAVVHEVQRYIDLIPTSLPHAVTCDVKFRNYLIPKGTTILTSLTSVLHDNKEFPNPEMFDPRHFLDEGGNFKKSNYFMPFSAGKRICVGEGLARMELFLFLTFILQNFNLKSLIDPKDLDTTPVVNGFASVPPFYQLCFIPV

CC1(C)N=C(N)N=C(N)N1c1ccc(Cl)cc1 [Cycloguanil, cycloguanil]
Log D pH 7.4 [1]: 1.1
AUC Obs ([2]; 200 mg QD (Day 14) EM, 0-24 h, ref Helsby et al., 1993 19): 3170 ng·h/mL
AUC Obs ([2]; 200 mg QD (Day 14) PM, 0-24 h, ref Helsby et al., 1993 19): 1190 ng·h/mL
AUC Obs ([2]; 200 mg SD EM, 0-72 h, ref Helsby et al., 1993 19): 2350 ng·h/mL
AUC Obs ([2]; 200 mg SD PM, 0-72 h, ref Helsby et al., 1993 19): 983 ng·h/mL
AUC Obs [2, 18]: 661 ng·h/mL
Cmax Obs ([2]; 200 mg SD, ref Wattanagoon et al., 1987 17): 41 ng/mL
fu ([3]; ref Charman et al., 2020 1): 0.75
B:P ([4]; ref Charman et al.): 0.71
fumic [5]: 0.72
fumic [6]: 0.911

CCNCc1cc(Nc2ccnc3cc(Cl)ccc23)ccc1O [DEAQ, desethylamodiaquine]
AUC ratios Sim/Obs [7, 19]: 0.89
Cmax ratios Sim/Obs [7, 20]: 1.00
fraction unbound [8]: 0.26
AUC Obs ([2]; 600 mg QD (Day 3), 0-96 h, ref Scarsi et al., 2014 1): 14571 ng·h/mL
Cmax Obs ([2]; 600 mg QD (Day 3), ref Scarsi et al., 2014 1): 495 ng/mL
AUC ratio Obs [9, 21]: 0.874
Cmax ratio Obs [9, 21]: 0.75
Main binding protein ([3]; ref amodiaquine, DEAQ Hietala, 2009 2, atovaquone Nixon et al., 2013 13, DHA Batty et al., 2004 41, mefloquine, tafenoquine (also AGP) Zsila et al., 2008 54): AGP
B:P ([4]; PBPK input, ref artemether Colussi et al., 1999 11, atovaquone Rolan et al., 1997 14, Beerahee, 1999 16, Charman et al., azithromycin Pene Dumitrescu et al., 2013 21, DEAQ Winstanley et al., 1987 9, proguanil weighted mean Helsby et al., 1993 61, Wattanagoon et al., 1987 63): 3
CL renal [10]: 1.4 L/h
CL PO [10]: 32 L/h

CCCCN(CCCC)CC(O)c1cc(Cl)cc2c1-c1ccc(Cl)cc1/C2=C/c1ccc(Cl)cc1 (stereo not shown) [Lumefantrine, lumefantrine]
predicted AUC0-inf as % of the observed value [11]: approximately 66%
predicted Cmax as % of the observed value [11]: approximately 62%
Cmax ratios Sim/Obs ([7]; Day 7 concentrations, 480 mg BID (Day 22-24) + rifampicin 600 mg QD (Days 1-46)): 0.23
Cmax ratios Sim/Obs [7, 20]: 0.61 and 0.92 and 1.08 and 1.06
Risk as a perpetrator [12]: CYP2D6 inhibitor
Risk as a victim [12]: Substrate of CYP3A4
fm additional / undefined metabolism [13]: 60%
fmCYP3A4 [14]: 40%
CLint CYP3A4 ([14]; microsomes): 0.9 µL/min/pmol
AUC Obs ([2]; 480 mg BID (Day 3) PM, 60-324 h, ref Huang et al., 2012 8): 418000 ng·h/mL
AUC Obs ([2]; 480 mg BID (Day 3) PM, 62-480 h, ref Lefevre et al., 2002 7): 383000 ng·h/mL
Cmax Obs ([2]; 480 mg BID (Day 3) PM, ref Huang et al., 2012 8): 11600 ng/mL
Cmax Obs ([2]; 480 mg BID (Day 3) PM, ref Lefevre et al., 2002 7): 10000 ng/mL
AUC Obs ([2]; 480 mg SD, 0-264 h, ref Lefevre et al., 2013 6): 236000 ng·h/mL
AUC Obs ([2]; 480 mg SD, 0-inf, ref Lefevre et al., 2002 5): 207000 ng·h/mL
Cmax Obs ([2]; 480 mg SD, ref Lefevre et al., 2002 5): 7910 ng/mL
Cmax Obs ([2]; 480 mg SD, ref Lefevre et al., 2013 6): 8920 ng/mL
AUC reduction ([9]; human, in vivo): 56%
fu ([3]; ref atovaquone Mepron Prescribing Information, 2008, Nixon et al., 2013 13, Rolan et al., 1997 14, azithromycin Foulds et al., 1990 20, chloroquine Ofori-Adjei et al., 1986 27, Walker et al., 1983 28, DHA Batty et al., 2004 41 (healthy volunteers), lumefantrine CDER submission 22-269, proguanil Wattanagoon et al., 1987 63, tafenoquine Dow et al., 2020 84): 0.003
CL PO [10]: 3.5 L/h
B:P [15]: 0.55

[H]/N=C(\N/C(=N/[H])Nc1ccc(Cl)cc1)NC(C)C [Proguanil, proguanil]
AUC ratios Sim/Obs [7, 19]: 1.01 and 0.80
Risk as a perpetrator [12]: CYP2D6 inhibitor
Risk as a victim [12]: Substrate of CYP2C19 and CYP3A4
fm additional / undefined metabolism [13]: 25%
Additional Undefined metabolism ([13]; retrograde calculations): 13.46 µL/min/pmol
CLint CYP3A4 formation of cycloguanil [14]: 0.013 µL/min/pmol
fmCYP3A4 [14]: 3%
fmCYP2C19 ([16]; fraction metabolised used in the PBPK model (proguanil: total, all routes)): 36%
fmCYP2C19, additional [16, 22]: 9%
fmCYP2C19, formation of CPBG [16, 22]: 8%
fmCYP2C19, formation of cycloguanil [16, 22]: 17%
CLint CYP2C19 - additional ([16]; retrograde calculations): 1.25 µL/min/pmol
CLint CYP2C19-mediated formation of 4-Chlorphenylbiguanide (CPBG) ([16]; retrograde calculations): 1.07 µL/min/pmol
CLint CYP2C19-mediated formation of Cycloguanil ([16]; retrograde calculations from CL PO): 2.23 µL/min/pmol
Cmax Obs ([2]; 200 mg QD (Day 14) EM, ref Helsby et al., 1993 19): 190 ng/mL
Cmax Obs ([2]; 200 mg QD (Day 14) PM, ref Helsby et al., 1993 19): 338 ng/mL
AUC Obs ([2]; 200 mg SD EM, 0-inf, ref Helsby et al., 1990 18): 3396 ng·h/mL
Cmax Obs ([2]; 200 mg SD EM, ref Helsby et al., 1993 19): 209 ng/mL
AUC Obs ([2]; 200 mg SD PM, 0-inf, ref Helsby et al., 1990 18): 6563 ng·h/mL
Cmax Obs ([2]; 200 mg SD PM, ref Helsby et al., 1993 19): 273 ng/mL
Cmax Obs ([2]; 200 mg SD, dose corrected to free base for simulations, ref Wattanagoon et al., 1987 17): 170 ng/mL
AUC Obs [2, 18]: 2975 ng·h/mL
Caco-2 (Papp A-B) [17]: 3.5 10-6 cm/s
CL renal [10]: 26.64 L/h
CL PO [10]: 86.4 L/h
fe (fraction excreted unchanged in urine) ([10]; in vivo): 36%
fumic [6]: 0.66
